# Measured values taken from patent US5143916A, “Naphthylpiperazines useful as 5-HT1A receptor ligands” (Adir et Compagnie, priority 1989, dated 1992).
# Tests used:
# [1] = Antihypertensive activity: arterial blood pressure and heart rate in anesthetized mongrel dogs (i.v.); type: in vivo
# Procedure: Mongrel dogs (male and female) are anesthetized with phenobarbital (30 mg/kg i.v.) and then placed in artificial respiration (Bird Mark VII respirator). Arterial blood pressure is measured by means of a catheter placed in the abdominal aorta via the femoral artery. This catheter is connected to a pressure cell (Statham® R23 D6) linked to a recorder.
# Heart rate is measured by means of a Gould Biotach®.
# Sympathetic nervous activity is recorded from the renal nerve by means of a silver electrode. The amplified signal is visualized on an oscilloscope (Tektronix 5115®) and then measured in μV by means of a Gould integrator.
# [2] = dog, in vivo; cited from earlier work
# 5-HT1A receptors = conditions: European Journal of Pharmacology, (1988), 149, p. 213-223; cited from earlier work
structure (smiles),measurement,setting,value
"O=C(NCCN1CCN(c2cccc3c2OC[C@H](CO)O3)CC1)c1ccc(F)cc1 (racemic) [Flesinoxan, racemic]",Effect on arterial blood pressure,[1]; 10 μg/kg i.v.,0 mm/Hg
same,Effect on heart rate,[1]; 10 μg/kg i.v.,0 Beats/min.
same,Effect on heart rate,[1]; 30 μg/kg i.v.,0 Beats/min.
"O=C(NCCN1CCN(c2cccc3c2OC[C@H](CO)O3)CC1)c1ccc(F)cc1 (single isomer, unassigned) [Flesinoxan, (+) isomer]",Relative activity of flesinoxan isomers,[2],the more active isomer
O=C(NCCN1CCN(c2cccc3c2OC[C@H](CO)O3)CC1)c1ccc(F)cc1 [flesinoxan],"5-HT1A receptor agonist activity, antihypertensive properties",5-HT1A receptors,antihypertensive properties due to its 5-HT1A receptor agonist activity
